Read-outs that look alike come from different tables or passages of the source.
Experiments:
[1] = molecular target: W9 probe (isolated 9 bp AT-tract); test: DNase I footprinting on W9 probe; format: binding; details: for Kd: apparent dissociation constant, read-out: Kdapp W9
Description: To target AT-tracts, the principal component of satellite I, III and SARs), a pyrrole pentamer was synthesized by facile solid phase chemistry in which five pyrrole (Py) aromatic amino acid rings are linked covalently by amide bonds (Baird and Dervan, 1996). The resulting compound, termed P7 had the sequence Py-Py-Py-Py-Py-β-Dp (where β=β-alanine and Dp=dimethylaminopropylamide). This compound is expected to bind 7 successive A or T base pairs (Ws) according to the n+1 rule where n is the number of amides (Youngquist and Dervan, 1985). The DNA binding properties of P7 were assessed by DNAse I footprinting experiments using a synthetic probe containing isolated, repeated AT-tracts of 9 Ws (W9, FIG. 2A). By visual inspection, the apparent dissociation constant (Kapp) for P7 was estimated to be approximately 80 nM (Table 3).
were hybridized to obtain the W9 probe, oligomerized by ligation and digested with BamHl and BglII to obtain different tandem repeats. The following oligonucleotides were prepared identically:
(§1) Fragments were purified on low-melt agarose gels and then cloned into a modified pSP64 vector, cut by BamHI and BglII. End-labeling was carried out following digestion with HindIII and a fill-in reaction with Klenow DNA polymerase. The labeled plasmid was cut with PvuII and the target fragments purified from low-melting agarose gels. The 657 bp EcoRl/Hinf1 fragment of the Drosophila histone SAR was cloned into the SmaI site of the modified pSP64 plasmid. This SAR probe was end-labeled following digestion with EcoRl, then cut with ClaI and the resulting 347 bp fragment purified from low-melting agarose gels.
(§2) All reactions were performed in a total volume of 40 μl. A polyamide stock solution or buffer (for reference lanes) was added to an assay buffer containing 20 kcpm radiolabeled DNA, affording final concentrations of 10 mM Tris-HCl (pH 7.4), 10 mM KCl, 10 mM MgCl, 5 mM CaCl2, 0.5 mM EDTA, 0.5 mM EGTA, 1 mM DTT and 0.1% digitonine. The solutions were allowed to equilibrate for at least 2 h at room temperature. Footprinting reactions were initiated by the addition of 2 μl of a DNase stock solution (containing −100 pg DNase I in buffer) and allowed to proceed for 2 min at room temperature. The reactions were stopped by addition of 10 μl of a solution containing 1.25 M NaCl, 100 mM EDTA. Next, 5 μl of a 1% SDS solution was added, followed by 2 μl of a solution containing 1 μg poly(dA-dT), 1 μg salmon sperm DNA and 10 μg glycogen and the DNA was ethanol precipitated (20 min at −20° C.). The reactions were resuspended in 4 μl of 80% formamide loading buffer, denatured 10 min at 85° C., cooled on ice and electrophoresed on 8% polyacrylamide denaturing gels (5% cross-link, 8 M urea) at 30 W for 1 h. The gels were dried and exposed o/n at −70° C.

[2] = tested on: Drosophila histone SAR probe (clustered/long AT-tracts); test: DNase I footprinting on SAR probe; format: binding; details: for Kd: apparent dissociation constant, SAR probe, read-out: Kdapp SAR
Experimental: Since satellite I is composed of exclusively A and T bases, it constitutes an ‘ideal’ binding substrate for oligopyrroles. But to obtain SAR-specific compounds, molecules are required that preferably bind its clustered, irregularly spaced AT-tracts. Binding studies were carried out with P9, P7 and P13 on the Drosophila histone SAR probe which contains the following clustered/long AT-tracts (W15N3W17N5W16N13W8NW6 where N is any base, see also FIG. 3D). […] The ratio of these two affinities is used (KappW9/KappSAR) as an empirical measure of SAR specificity. For all compounds tested thus far, this value (referred to as SAR preference factor) was around unity (Table 3).
as §1, §2

[3] = tested on: Drosophila satellite III chromatin (topoisomerase II cleavage); test: Topoisomerase II cleavage in satellite III of Kc nuclei in Xenopus egg extracts with VM26; format: biochemical
[4] = tested on: sperm nuclei (condensation to chromatids); test: Chromosome condensation of sperm nuclei in mitotic Xenopus egg extracts; format: biochemical; details: for reversal of condensation inhibition by competitor oligonucleotide: Lex10 1 μM
Description: Mitotic Xenopus egg extracts convert added nuclei and sperm to chromatids in vitro. This chromosome condensation process requires topoisomerase II (Adachi et al., 1991), the protein complex condensin (Hirano T, 1997) and presumably other unidentified activities present in the mitotic extract. First, chromatin is remodeled and nuclei then proceed quite synchronously through a number of morphologically distinguishable steps (Hirano and Mitchison, 1991). Remodeling is morphological manifested by swelling of the nuclei which involves exchange of basic sperm-specific proteins for H2A/H2B and the incorporation of histone B4 (Dimitrov S, 1994).
Pyrrole drugs were added to the extract together with the sperm or after the remodeling step (at 10 minutes) and the extent of condensation was determined after 120 min. At this time point, the conversion of all sperm nuclei to clusters of individual chromatids is complete in the absence of drug (FIG. 8A, control). […] Addition of this compound at 125 to 250 nM (indicated) arrested this process at the so-called early ‘ruffle’ stage (FIG. 8A). These structures retain the swollen sperm shape, but they have peripheral blebs (ruffles) and a slightly heterogeneous interior. At this drug concentration, no chromatids are seen. If the concentration of Lex10 is raised to 500 nM, we observed an even earlier arrest as evidenced by the accumulation of swollen, remodeled sperm-shaped nuclei containing a homogeneous interior and smooth periphery. […] The monomer P7 was also tested but we observed no inhibition with the pyrrole pentamer up to the highest concentration (8 μM) tested. Condensation was inhibited at a ruffle stage with a P9 concentration of 2 μM (not shown).
In the experiment shown in FIG. 8B, Lex10 was added to the extract at a final concentration of 1 μM (several fold above the minimum inhibitory concentration) after which competitor oligonucleotides were added at different stages. Three different oligonucleotides of similar size were used: the SAR oligo contains two large clustered AT-tracts of the SAR probe (W17N5W15), the W9 oligo has a single AT tract of 9 base pairs and the GAGAA oligo harbors 5 tandem GAGAA repeats.
Topoisomerase II inhibition and chromosome assembly were as described previously (Girard et al., 1998, Strick and Laemmli, 1995). Affinity cleavage experiments was performed as described elsewhere (Turner et al., 1997).

Molecule	Kd ([1]; W9 probe) [nM]	Ratio (KappW9/KappSAR, SAR preference factor) [2]	Kd [2] [nM]	stimulation of topoisomerase II cleavage in satellite III [3]	further results
(Py)3-β-(Py)3-(Ao)3-(Py)5-β-Dp [Lex18]	100	100	1		
PyPyPyPyPy-β-Dp-E-AoAoAo-PyPyPyPyPy-β-Dp [Lex9]	3.5	2	1.75	much reduced cleavage stimulation	SAR specificity factor after tagging with fluorescent label ([2]; value of the tagged derivative): 25; inhibition of condensation ([4]; 250 to 500 nM): Little inhibition
CN(C)CCCNC(=O)CCNC(=O)c1cc(NC(=O)c2cc(NC(=O)c3cc(NC(=O)c4cc(NC(=O)c5cccn5C)cn4C)cn3C)cn2C)cn1C [Compound P7, Py-Py-Py-Py-Py-β-Dp]	~80	2.3	35	massively stimulated	Kd ([1]; W9 probe, listed as P10): 80 nM; concentration inhibiting chromosome condensation (block at ruffle stage) ([4]; 120 min): > 8 µM
(Py)3-β-(Py)3-β-Dp-F* [Compound P9F]	4	4	1		increase of SAR specificity upon fluorescein tagging [2]: about 4 fold
CN(C)CCCNC(=O)CCNC(=O)c1cc(NC(=O)c2cc(NC(=O)c3cc(NC(=O)CCNC(=O)c4cc(NC(=O)c5cc(NC(=O)c6cc(NC(=O)CCNC(=O)c7cc(NC(=O)c8cc(NC(=O)c9cccn9C)cn8C)cn7C)cn6C)cn5C)cn4C)cn3C)cn2C)cn1C [Compound P13, PyPyPy-β-PyPyPy-β-PyPyPy-β-Dp]	1	0.8	1.25		ligand concentration giving nearly complete protection (coating) of the W9 probe [1]: ≥ 62.5 nM; GC tolerance / AT-specificity of footprint ([1]; W9 probe, flanking mixed sequences): marked tendency to protect GC base pairs
F*-γ-(Py)5-β-Dp [Compound P7F]	3000	2.5	1200		
F*-γ-(Py)3-β-(Py)3-β-Dp-Glu-(Ao)3-(Py)5-β-Dp [Lex10F]	20	20	1		reduction of binding affinity upon fluorescein tagging ([1]; versus untagged compound): only a minor reduction in affinity
F*-γ-(Py)5-β-Dp-Glu-(Ao)3-(Py)5-β-Dp [Lex9F]	2500	25	100		
PyPyPy-β-PyPyPy-β-Dp-E-AoAoAo-PyPyPyPyPy-β-Dp [Lex10]	20		0.28	does not stimulate	affinity for SAR lower than that of MATH20 [2]: approximately 100; concentration at which inhibition of topoisomerase II cleavage occurs abruptly [3]: around 600 nM; inhibition of topoisomerase II cleavage in satellite III ([3]; 1 μM): inhibits cleavage of topoisomerase II completely; concentration giving even earlier arrest (swollen, remodeled sperm-shaped nuclei) [4]: 500 nM; higher concentration than MATH20 for inhibition of condensation [4]: 80 fold; reversal of condensation inhibition by competitor oligonucleotide ([4]; 360 ng of W9 or GAGAA oligo): did not reverse the block; reversal of condensation inhibition by competitor oligonucleotide ([4]; 50 to 100 ng SAR oligo): completely reversed
